Results reported in patent EP0492113A2, “Herbicide resistant AHAS deletion mutants” (priority 1990, dated 1992).
Several values for one entry are separate records, joined by “and”; a condition that tells them apart may be missing. Equal entries are not always repeated.

Legend:
10-1 Selfed = assay: Tobacco seed assay on herbicide medium, 10-1 selfed; type: in vivo; conditions: 5 µM in medium; twenty seeds per dish; after three weeks
Protocol: (§1) Seeds resulting from transgenic plant 10-1 are also assayed for resistance to the imidazolinone Pursuit®. Seeds are plated onto medium containing Pursuit® at 0, 1.25, 2.5, 3.75, and 5.0 µM. Twenty seeds are plated per petri dish, with two dishes per treatment. Herbicide tolerance of seedlings is evaluated after three weeks. […]

[1] = molecular target: T1, Trp574-->Leu substitution mutant allele of the Arabidopsis AHAS (Arabidopsis thaliana, UniProt P17597, W574L); assay: AHAS enzyme assay (leaf tissue) of tobacco transformants 33-1 and 46-2; type: biochemical; conditions: leaf extracts of kanamycin resistant transformants 33-1 and 46-2
T1 construct: expressed in transfected cells; host or cells: leaf tissue of transgenic tobacco (Wisconsin 38 background), Agrobacterium LBA4404 / pBIN19 with the 5.5 kb XbaI genomic fragment
Protocol: (§2) AHAS enzyme assay (leaf tissue) - Shortly after transfer to the greenhouse, extracts each of the kanamycin resistant transformants are prepared and assayed for insensitivity to the imidazolinone Pursuit® herbicide. Acetohydroxyacid synthase is extracted and assayed as described in the previous section. […] This Trp574 deletion transformant is selfed and backcrossed to Wisconsin 38.
(§3) The extraction and assay for Arabidopsis AHAS in bacterial cells is essentially as described by Singh, et. al. (J. Chromatography 444: 251-261, 1988). The bacterial pellet is powered in liquid nitrogen and homogenized in 100mM potassium phosphate buffer (pH 7.5) containing 10mM pyruvate, 5mM magnesium chloride, 5mM Na₂-EDTA, 100um flavin adenine dinucleotide (FAD), 1mM valine, 1mM leucine, 10%(v/v) glycerol and 10mM cysteine. The homogenate is filtered through a nylon cloth (53uM mesh) and centrifuged at 25,000 x g for 20 minutes. The supernatant fraction is brought to 50% saturation with respect to ammonium sulfate and allowed to stand for 20-30 minutes on ice. […]
(§4) AHAS activity in the presence or absence of herbicide is measured by estimation of the product, acetolactate, after conversion by acid decarboxylation to acetoin. […] The acetoin formed is determined by incubating with creatine (0.17%) and 1-naphthol (1.7%) by the method of Westerfeld (J. Biol. Chem. 161: 495-502, 1945). […]

[2] = molecular target: T2, AHAS produced by the Ser653 deletion (pAC230) (Arabidopsis thaliana, UniProt P17597, DEL653-653); type: biochemical; conditions: Figures 6 and 7
T2 construct: made in house; host or cells: E. coli MF2000

[3] = test system: selfed progeny of the transgenic tobacco plant (10-1) containing the Trp574 deletion mutation of Arabidopsis AHAS; assay: Postemergence spray of tobacco, selfed progeny of transgenic plant 10-1; type: in vivo; conditions: for plant growth: 25 days after spraying, Figure 2(a); for Tobacco Mean FW: (5 reps each): Transgenic Progeny, four and one-half weeks
From the text: All three photographs were taken 25 days after spraying. In all photographs, control plants (a wild-type herbicide sensitive tobacco cultivar, Wisconsin 38[W38]) are in the front row. • (a) W38 Control and 10-1 Self - W38 represents the control and 10-1 the selfed transgenic tobacco progeny. At 0 g/ha Pursuit®, both the W38 and the 10-1 look similar. […] 0 x 10-1 represents W38 as the maternal parent (0) and 10-1 as the paternal parent. The results are very similar to that seen in the 10-1 selfed photograph. • (c) W38 Control and 10-1 x 0 - W38 as previously described. 10-1 x 0 represents 10-1 as the maternal parent and W38 as the paternal parent (0). The results are very similar to that seen in the 10-1 selfed photograph except that in this photo segregation of the herbicide resistance trait can be seen in the 10-1 progeny.
In a more quantitative assay, seed of selfed progeny of the transgenic tobacco plant (10-1) containing the Trp574 deletion mutation of Arabidopsis AHAS as well as seeds of the susceptible parental cultivar "Wisconsin 38" are planted in Metro Mix 350™ in 5" Azalea pots. The seedlings are thinned to the single most vigorous seedling after 2 days. Eleven days later, these plants are sprayed postemergence with Pursuit® at 0, 10, 20, 40, 80 and 160 g/ha. Five plants of each tobacco type (transgenic and control) are sprayed per herbicide rate. Tween 20™ is added at 0.25 v/v to the herbicide solutions prior to spraying. The herbicide is applied with a laboratory belt sprayer at a rate of 400 L/ha at a distance 18" above the plants with a belt speed of 8.2 sec/rev and sprayer nozzle #65015E. Plant heights are measured 1, 2, 3, and 4 weeks after treatment, plant fresh weight data is collected at four and one-half weeks.

10-1 x 0 = assay: Tobacco seed assay on herbicide medium, 10-1 x 0; type: in vivo; conditions: 5 µM in medium; twenty seeds per dish; after three weeks
Protocol: as §1

0 x 10-1 = assay: Tobacco seed assay on herbicide medium, 0 x 10-1; type: in vivo; conditions: 5 µM in medium; twenty seeds per dish; after three weeks
Protocol: as §1

[4] = molecular target: T3, mutant Arabidopsis AHAS allele having the Trp574 deletion (Arabidopsis thaliana, UniProt P17597, DEL574-574); assay: AHAS enzyme assay (leaf tissue) of tobacco deletion transformant 10-1; type: biochemical; conditions: leaf extract of kanamycin resistant deletion transformant 10-1
T3 construct: expressed in transfected cells; host or cells: leaf tissue of transgenic tobacco plant 10-1, Agrobacterium LBA4404 / pBIN19 with the 5.5 kb XbaI genomic fragment
Protocol: as §2, §3, §4

T1 sequence (P17597 56-670 W574L): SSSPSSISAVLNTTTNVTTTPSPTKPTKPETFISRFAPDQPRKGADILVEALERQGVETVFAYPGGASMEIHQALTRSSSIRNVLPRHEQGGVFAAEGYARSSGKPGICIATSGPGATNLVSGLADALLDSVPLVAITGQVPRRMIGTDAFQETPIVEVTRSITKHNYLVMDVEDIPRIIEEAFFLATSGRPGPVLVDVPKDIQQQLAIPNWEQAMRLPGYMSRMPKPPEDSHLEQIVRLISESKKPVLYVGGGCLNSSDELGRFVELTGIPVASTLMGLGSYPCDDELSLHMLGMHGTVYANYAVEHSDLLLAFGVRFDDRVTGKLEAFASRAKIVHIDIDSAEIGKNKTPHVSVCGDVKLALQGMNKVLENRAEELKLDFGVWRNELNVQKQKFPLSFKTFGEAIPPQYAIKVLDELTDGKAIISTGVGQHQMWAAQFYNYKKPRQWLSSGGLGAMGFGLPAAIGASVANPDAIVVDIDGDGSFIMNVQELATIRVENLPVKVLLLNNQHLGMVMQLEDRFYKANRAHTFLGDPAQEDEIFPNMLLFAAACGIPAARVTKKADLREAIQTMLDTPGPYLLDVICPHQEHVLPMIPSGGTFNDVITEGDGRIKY
T3 sequence (P17597 other isoform, or with tags, fused parts or gaps DEL574-574): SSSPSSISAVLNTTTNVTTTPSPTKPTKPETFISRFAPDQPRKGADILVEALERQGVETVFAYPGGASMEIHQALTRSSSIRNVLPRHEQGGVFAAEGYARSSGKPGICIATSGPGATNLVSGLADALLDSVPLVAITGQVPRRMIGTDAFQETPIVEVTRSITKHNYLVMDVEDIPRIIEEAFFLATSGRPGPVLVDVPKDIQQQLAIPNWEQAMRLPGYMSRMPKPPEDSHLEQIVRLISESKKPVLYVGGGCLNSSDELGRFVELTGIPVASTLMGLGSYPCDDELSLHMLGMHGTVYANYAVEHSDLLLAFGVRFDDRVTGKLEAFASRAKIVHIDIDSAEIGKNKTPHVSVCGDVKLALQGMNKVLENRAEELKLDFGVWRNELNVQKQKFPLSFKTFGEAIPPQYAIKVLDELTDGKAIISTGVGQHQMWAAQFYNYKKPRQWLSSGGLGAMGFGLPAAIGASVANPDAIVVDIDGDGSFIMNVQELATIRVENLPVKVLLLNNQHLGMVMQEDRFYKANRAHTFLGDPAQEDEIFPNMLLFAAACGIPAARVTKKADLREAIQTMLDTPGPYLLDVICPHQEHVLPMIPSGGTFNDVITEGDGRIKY
T2 sequence (P17597 other isoform, or with tags, fused parts or gaps DEL653-653): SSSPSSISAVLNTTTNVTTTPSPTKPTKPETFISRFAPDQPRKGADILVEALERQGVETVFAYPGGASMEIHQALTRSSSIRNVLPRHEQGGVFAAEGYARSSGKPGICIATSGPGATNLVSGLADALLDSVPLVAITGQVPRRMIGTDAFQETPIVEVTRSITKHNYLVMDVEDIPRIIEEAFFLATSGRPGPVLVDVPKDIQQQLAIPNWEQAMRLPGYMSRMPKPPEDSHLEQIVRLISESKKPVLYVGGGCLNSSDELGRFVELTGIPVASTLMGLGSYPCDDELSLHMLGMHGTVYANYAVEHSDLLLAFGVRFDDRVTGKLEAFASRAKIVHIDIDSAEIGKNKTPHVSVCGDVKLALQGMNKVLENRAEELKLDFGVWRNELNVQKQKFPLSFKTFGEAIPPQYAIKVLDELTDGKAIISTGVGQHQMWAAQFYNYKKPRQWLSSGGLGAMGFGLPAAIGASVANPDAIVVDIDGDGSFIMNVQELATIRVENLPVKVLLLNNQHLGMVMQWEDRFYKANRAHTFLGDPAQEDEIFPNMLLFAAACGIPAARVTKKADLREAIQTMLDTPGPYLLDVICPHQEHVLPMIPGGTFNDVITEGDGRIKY

## CCc1cnc(C2=NC(C)(C(C)C)C(=O)N2)c(C(=O)O)c1 (centres unmarked) [Pursuit®]
10-1 Selfed
  D (Damaged), number of seedlings per dish: 6 and 11
  R (Resistant), number of seedlings per dish: 6
[1]
  AHAS activity in the presence of herbicide: exhibit AHAS activity
[2]
  sensitivity of AHAS enzyme to herbicide: highly resistant to inhibition
[3]; 80 g/ha post-emergence
  plant growth: slightly inhibited
[3]; 160 g/ha post-emergence
  plant growth: clearly inhibited
[3]; 10 g/ha postemergence
  Tobacco Mean FW: (5 reps each): 36.4 g
[3]; 20 g/ha postemergence
  Tobacco Mean FW: (5 reps each): 28.8 g
[3]; 40 g/ha postemergence
  Tobacco Mean FW: (5 reps each): 20.9 g
[3]; 80 g/ha postemergence
  Tobacco Mean FW: (5 reps each): 26.5 g
[3]; 160 g/ha postemergence
  Tobacco Mean FW: (5 reps each): 21.4 g
[3]; progeny from 10-1
  tolerance to post-emergence applications, relative to the concentration lethal to control tobacco plants: 4-8 x
[3]; rates 10 to 160 g/ha
  herbicide tolerance, applied postemergence: high degree of tolerance
10-1 x 0
  D (Damaged), number of seedlings per dish: 9
  R (Resistant), number of seedlings per dish: 0
  S (Susceptible), number of seedlings per dish: 11
0 x 10-1
  D (Damaged), number of seedlings per dish: 9 and 8
  R (Resistant), number of seedlings per dish: 0
  S (Susceptible), number of seedlings per dish: 10 and 8
[4]
  AHAS activity on addition of herbicide: exhibits insensitivity
